Columns and labels:
Assay in all cases: Cell line proliferation study
Format in all cases: cell-based, human
[1] = test system: HCT8; details: HCT8, colon; for IC50: Homo sapiens, HCT-8, 72 hours, read-out: gIC50
Experimental: (§1) In a separate study, combination drug tests with Compounds A and B were conducted using a panel of cell lines from human colon cancers (n=26), lung cancers (n=15) and pancreatic cancers (n=6). Cell lines were obtained from commercial vendors (ATCC and DSMZ). Cell lines were grown in RPMI-1640 supplemented with 2 mM glutamine, 1 mM sodium pyruvate and 10% fetal bovine serum (except for Capan-1 and HuP-T4 which were grown with 20% fetal bovine serum) and maintained at 37° C. and 5% CO2 in a humid incubator. Assays were performed in 384 well microtiter plates with optimum seeding densities for each cell line.
(§2) The test compounds were prepared as 10 mM stocks in 100% DMSO. Further dilutions of the compounds were made in DMSO. Compound A was diluted horizontally in a separate 96 well microtiter plate in rows D-G using a 3-fold dilution series for 10 dilution points. Compound B was similarly diluted horizontally in a 96 well microtiter plate in rows B-E using a 3-fold dilution series for 10 dilution points.
(§3) The two compounds were combined using equal volumes from each drug plate into cell culture media. […] Both Compound A and Compound B were individually titrated in rows B and C (for Compound B) and rows F and G (for Compound A) of the merged drug plate.
(§4) A 1:10 dilution of the drugs was performed in cell culture media prior to addition to the cells.
(§5) The final concentration range for the test compounds was 250 to 0.013 nM for Compound A and 1000 to […] for Compound B. The positive control consisted of culture media with DMSO at 0.1% and cells. The negative control consisted of culture media with DMSO at 0.1%. The cell lines were incubated at 37° C., 5% CO2 in humid air for 72 hours. Cell proliferation was measured using the CellTiter Glo (Promega) reagent according to the manufacturer's protocol. The plates are treated with CellTiter Glo solution and are analyzed for RLU (relative light units) using a Molecular Devices SpectraMax M5 plate reader.
(§6) The percent intensity values were used in model 205 of XLfit (IDBS, Inc.) in Microsoft Excel to calculate gIC50 values using a 4 parameter logistical fit. The midpoint of the growth window (the gIC50) falls half way between the number of cells at the time of compound addition (T=0) and the growth of control cells treated with DMSO at 72 hrs. The number of cells at time zero (T0) is divided from the intensity value at the bottom of the response curve (Ymin) to generate a measure for cell death (Ymin/T0). A value below 1 for Ymin/T0 indicates stronger potency to induce cell death with the treatment when compared to higher values.
(§7) 1. Excess over Highest Single Agent (EOHSA)—This was calculated as described above (Borisy et al, 2003; FDA 21 CFR 300.50) 2. Bliss synergy—A second criterion often used to determine combination synergy is evaluating the excess inhibition over Bliss independence or “additivity” (Bliss and Mexico, 1939). The model assumes a combined response of the two compounds independently using the following:
(§8) Where Ea is the effect (or percent inhibition) of Compound A and Eb is the effect of Compound B. The resulting effect of the combination of the two compounds is compared to their predicted additivity by Bliss and a synergy score is generated for each dose along the response curve. 3. Combination Index (CI)—A third criterion traditionally used for the evaluation of synergy is Combination Index (CI) derived from the Chou and Talalay (1984). The following equation is a model used for compounds that behave with different mechanisms of action (mutually non-exclusive formula). This was calculated as described above.
(§9) For EOHSA and Bliss Synergy measures, a score is generated for each dose along the response curve. These scores reflect the percentage over the highest agent (EOHSA) or percentage greater than Bliss additivity, depending on which metric is being interpreted. […]

[2] = test system: HPAFII; details: pancreas; for IC50: Homo sapiens, HPAF-II, 72 hours, read-out: gIC50
Experimental: as §1, §2, §3, §4, §5, §6, §7, §8, §9

[3] = test system: MiaPaCa; details: for IC50: Homo sapiens, MIA PaCa-2, pancreas, 72 hours, read-out: gIC50; for Ymin/T0: pancreas
Experimental: as §1, §2, §3, §4, §5, §6, §7, §8, §9

[4] = test system: NCIH1792; details: NCIH1792, lung; for IC50: Homo sapiens, NCI-H1792, 72 hours, read-out: gIC50
Experimental: as §1, §2, §3, §4, §5, §6, §7, §8, §9

[5] = test system: NCIH2030; details: NCIH2030, lung; for IC50: Homo sapiens, NCI-H2030, 72 hours, read-out: gIC50
Experimental: as §1, §2, §3, §4, §5, §6, §7, §8, §9

[6] = test system: NCIH2122; details: NCIH2122, lung; for IC50: Homo sapiens, NCI-H2122, 72 hours, read-out: gIC50
Experimental: as §1, §2, §3, §4, §5, §6, §7, §8, §9

[7] = test system: SW620; details: SW620, colon; for IC50: Homo sapiens, SW-620, 72 hours, read-out: gIC50
Experimental: as §1, §2, §3, §4, §5, §6, §7, §8, §9

[8] = test system: T84; details: T84, colon; for IC50: Homo sapiens, 72 hours, read-out: gIC50
Experimental: as §1, §2, §3, §4, §5, §6, §7, §8, §9

| SMILES | Ymin/T0 [1] | IC50 [1] | IC50 [2] | Ymin/T0 [2] | IC50 [3] | Ymin/T0 [3] | IC50 [4] | Ymin/T0 [4] | IC50 [5] | Ymin/T0 [5] | IC50 [6] | Ymin/T0 [6] | IC50 [7] | Ymin/T0 [7] | IC50 [8] | Ymin/T0 [8] |
| --- | --- | --- | --- | --- | --- | --- | --- | --- | --- | --- | --- | --- | --- | --- | --- | --- |
| CC(=O)Nc1cccc(-n2c(=O)n(C3CC3)c(=O)c3c(Nc4ccc(I)cc4F)n(C)c(=O)c(C)c32)c1 [Compound A, N-{3-[3-cyclopropyl-5-(2-fluoro-4-iodo-phenylamino)-6,8-dimethyl-2,4,7-trioxo-3,4,6,7-tetrahydro-2H-pyrido[4,3-d]pyrimidin-1-yl]phenyl}acetamide] | 16.70 | 0.0183 µM | 0.0159 µM | −0.8 | 0.0235 µM | 25.0 | 0.042 µM | 2.8 | > 0.25 µM | 55.8 | 0.03 µM | −11.8 | 0.0152 µM | 15.46 | 0.139 µM | 12.44 |
| Cn1ncc(Cl)c1-c1cc(C(=O)N[C@H](CN)Cc2ccc(F)c(F)c2)oc1Cl [Compound B, N-{(1S)-2-amino-1-[(3,4-difluorophenyl)methyl]ethyl}-5-chloro-4-(4-chloro-1-methyl-1H-pyrazol-5-yl)-2-furancarboxamide] | 20.44 | 0.758 µM | > 1 µM | 31.2 | > 1 µM | 0.7 | > 1 µM | 26.0 | > 1 µM | 40.7 | > 1 µM | 11.4 | > 1 µM | 76.65 | 0.427 µM | −5.58 |
